Results: US20080113969A1, “COMBINATION THERAPY FOR THE TREATMENT OF PAIN” (priority 2006, published 2008)
“Also recorded” adds a separate entry of the source.

How the values were obtained:
[1] = tested on: neuropathic pain model in male Sprague-Dawley rats; experiment: Neuropathic pain model (Chung model, spinal nerve ligation, von Frey withdrawal threshold); format: in vivo, rat; details: Chung model of chronic neuropathic pain, FIG. 8
From the text: Spinal Nerve Ligation: After Animal Care and Use Committee approval, male Sprague-Dawley rats (Harlan, Indianapolis, Ind., USA) weighing 180-200 g undergo anesthesia as previously described by Kim and Chung (Pain 1992, 50, 355-363). Briefly, under general anesthesia with inhalational halothane, the left L5 and L6 spinal nerves are identified through a small laminotomy and tightly ligated. Approximately one week later, an intrathecal catheter is placed under general anesthesia by insertion under direct vision of a polyethylene catheter through a small slit in the dura at the cisterna magnum, and advanced 8.5 cm such that the catheter tip resides in the lower lumbar intrathecal space. Animals are studied approximately one week later. Ligation of the lumbar spinal nerves results in a primarily unilateral increase in the sensitivity to light touch on the operated side. Sensitivity is assessed via application of calibrated von Frey filaments. The withdrawal threshold is determined using an up down method as previously described by Chaplan et al. (J. Neurosci. Methods 1994, 53, 55-63).
Experimental Design: Animals receive, at least 4 weeks after spinal nerve ligation surgery, and at least 1 week after intrathecal catheter insertion, single injections of vehicle (β-cyclodextrin) or the drug substance, using a randomized and blinded protocol. Withdrawal thresholds are determined at intervals for up to 20 hr after injection.

[2] = tested on: postoperative pain model in adult male rats; experiment: Postincisional hypersensitivity model (paw incision, withdrawal threshold to von Frey filaments); format: in vivo, rat; details: intrathecal (i.t.), 24 h after paw incision
Method: Animal preparation: Following Animal Care and Use Committee approval, an intrathecal (i.t.) catheter with tip in the lumbar space is inserted as previously described in adult male rats weighing 250 g (Yaksh and Rudy, Physiol Behav. 1976, 7, 1032-1036). One week following the insertion of the i.t. catheter, paw incision surgery is performed as previously described (Brennan et al., Pain 1996, 64, 493-501). Briefly, animals are anesthetized with halothane, and a 1-cm long incision is made in the plantar aspect of the left hind paw starting 0.5 cm from the edge of the heel toward the toe after sterile preparation with 70% ethanol. The plantaris muscle is elevated and incised longitudinally. The wound is closed with 2 mattress sutures of 5.0 silk. Subsequently, withdrawal threshold to von Frey filaments is determined one day after surgery (Chaplan et al., J. Neurosci. Methods, 1994, 53, 55-63). For all testing but pilot dose ranging studies, investigators are blinded to study drug administration. A cut off value of 22 g is used. […]
Single drug injection: For single drug administration, a volume containing 5 μL drug is used, followed by 10 μL of saline. […] Dose response curves are first constructed, and ED40 values for single drugs are then determined at the time of peak effect.
Drug interaction: For the combination of T-62 with morphine and NBQX, two injections are performed since the time of peak effect for morphine and NBQX is 30 min earlier than that of T-62 (T-62 is injected 30 min before drug injections). Paw withdrawal thresholds are determined before surgery, before drug injection, and 30, 60, 90, 120, 150, 180, and 210 min after the second drug injection. […] The dose response curves are then constructed for the combined drugs, and the ED40 values of the combined drugs are calculated at the time point of peak effect. […]
Data analysis: Data are presented as mean ±S.E. Withdrawal threshold data are analyzed by two-way analysis of variance followed by Fisher's LSD test. […] Isobolograms are statistically analyzed by student T test.

[3] = tested on: inflammatory and neuropathic pain; details: previously demonstrated (Li et al. 2003, Li et al. 2002, Pan et al. 2001); cited from earlier work

Structure (SMILES) | anti-allodynic effect [1] | relative potency among the three enhancers [1] | anti-hypersensitivity effect (mechanical hypersensitivity) [2] | effect on inflammatory and neuropathic pain [3]
Nc1sc2c(c1C(=O)c1cccc3ccccc13)CCC2 [formula (Ic)] | dose-dependent anti-allodynic effects | most potent enhancer of the three agents | – | –
CN1CC[C@]23c4c5ccc(O)c4O[C@H]2[C@@H](O)C=C[C@H]3[C@H]1C5 [Morphine, morphine, reference compound] | – | – | reduces mechanical hypersensitivity in a time and dose dependent manner | –
Nc1sc2c(c1C(=O)c1ccc(Cl)cc1)CCCC2 [T-62, (2-amino-4,5,6,7-tetrahydrobenzo[b]thiophen-3-yl)(4-chlorophenyl)methanone] | dose-dependent anti-allodynic effects | – | reduced mechanical hypersensitivity in a time dependent manner; also recorded: modest effect | reduce inflammatory and neuropathic pain
NS(=O)(=O)c1cccc2c1c([N+](=O)[O-])cc1nc(O)c(O)nc12 [NBQX, 2,3-dihydroxy-6-nitro-7-sulfamoylbenzo(f)quinoxaline, reference compound] | – | – | reduces the mechanical hypersensitivity in a time and dose dependent manner | –
Nc1sc2c(c1C(=O)c1ccccc1)CCS2 [formula (Ib)] | dose-dependent anti-allodynic effects | – | – | –
